Experimental findings from patent publication US20110165136A1, “Novel Herbal Composition for Treatment of Psoriasis and Other Skin Disorders” (HIMALAYA GLOBAL HOLDINGS LTD., priority 2010, published 2011) are described below.

For this experiment, the system named is Mouse tail. The experiment can be described thus: Topical anti-psoriatic activity by Mouse tail test. Type of experiment: in vivo. The settings on record: follow up study, 0.005%. The source says:
Pharmacological Screening of the Extracts and Oils for Topical Anti-Psoriatic Activity by Mouse Tail Test The composite extracts, oils blends and individual alcohol extracts were subjected to screening for evaluation of Anti-psoriatic activity by Mouse tail test and the results are summarized as FIG. 1-4.

Take `C=C1/C(=C\C=C2/CCC[C@]3(C)[C@@H]([C@H](C)/C=C/[C@@H](O)C4CC4)CC[C@@H]23)C[C@@H](O)C[C@@H]1O` [Calcipotriol]: the “para to orthokeratosis conversion” value is on record as “not found to be statistically significant”.
